The text below walks through data of US9656978B2, “Acylpiperazines as inhibitors of transglutaminase and their use in medicine” (ASTON UNIVERSITY, priority 2012, dated 2017).

For data set [1], the target named is T1, Factor X111a (Homo sapiens, UniProt P00488).
T1 sequence (P00488 39-732 limits assumed): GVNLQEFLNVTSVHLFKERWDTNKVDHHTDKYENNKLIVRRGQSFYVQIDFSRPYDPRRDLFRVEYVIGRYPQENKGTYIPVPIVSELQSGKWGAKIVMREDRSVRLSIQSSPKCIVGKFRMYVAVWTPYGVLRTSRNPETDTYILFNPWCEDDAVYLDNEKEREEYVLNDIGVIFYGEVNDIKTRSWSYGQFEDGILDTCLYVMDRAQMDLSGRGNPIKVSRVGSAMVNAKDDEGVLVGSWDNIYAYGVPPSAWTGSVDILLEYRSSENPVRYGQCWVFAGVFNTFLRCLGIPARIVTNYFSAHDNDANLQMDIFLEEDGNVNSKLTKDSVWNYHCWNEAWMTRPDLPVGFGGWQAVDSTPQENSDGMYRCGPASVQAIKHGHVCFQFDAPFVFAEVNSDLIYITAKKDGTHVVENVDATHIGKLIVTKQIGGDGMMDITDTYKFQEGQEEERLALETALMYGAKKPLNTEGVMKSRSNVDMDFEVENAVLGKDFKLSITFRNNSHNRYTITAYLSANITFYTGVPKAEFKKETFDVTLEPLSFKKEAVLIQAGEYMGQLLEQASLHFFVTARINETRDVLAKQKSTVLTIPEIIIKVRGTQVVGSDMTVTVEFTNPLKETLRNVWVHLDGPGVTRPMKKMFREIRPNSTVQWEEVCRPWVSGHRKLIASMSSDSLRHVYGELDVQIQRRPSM
In words: TG-CovTest commercial microassay, Factor X111a. The class given is biochemical. Particulars: read-out: Estimated IC50 FXIII. The text has this: (§1) For determination of the activity of transglutaminase 1,transglutaminase 3 and Factor X111a, a commercial microassay was used, TG-CovTest (Covalab, Lyon, France; see also Perez et al. Anal Biochem. 2009; 389:150-156).

Data set [2] concerns the target T2, purified recombinant human TG2 (tissue transglutaminase) (Homo sapiens, UniProt P21980).
T2 construct: purchased Zedira, Germany
T2 sequence (P21980 1-687): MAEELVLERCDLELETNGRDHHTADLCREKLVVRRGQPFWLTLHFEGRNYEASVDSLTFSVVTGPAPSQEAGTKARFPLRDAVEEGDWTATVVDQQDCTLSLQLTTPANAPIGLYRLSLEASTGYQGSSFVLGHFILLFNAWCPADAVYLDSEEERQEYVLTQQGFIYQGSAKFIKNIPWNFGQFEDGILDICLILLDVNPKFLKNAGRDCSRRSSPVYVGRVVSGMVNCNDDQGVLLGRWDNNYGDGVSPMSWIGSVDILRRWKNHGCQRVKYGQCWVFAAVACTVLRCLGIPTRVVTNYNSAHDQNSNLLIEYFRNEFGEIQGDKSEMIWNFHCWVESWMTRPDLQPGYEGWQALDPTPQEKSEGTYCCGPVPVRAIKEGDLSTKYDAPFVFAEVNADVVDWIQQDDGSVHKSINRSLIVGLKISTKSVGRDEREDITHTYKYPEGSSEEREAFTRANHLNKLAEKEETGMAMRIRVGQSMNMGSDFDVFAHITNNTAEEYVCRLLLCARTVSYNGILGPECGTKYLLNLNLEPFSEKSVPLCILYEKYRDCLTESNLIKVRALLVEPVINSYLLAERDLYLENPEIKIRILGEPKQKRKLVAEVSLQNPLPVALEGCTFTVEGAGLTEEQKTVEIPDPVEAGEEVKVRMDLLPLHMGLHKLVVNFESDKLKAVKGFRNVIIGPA
In words: TG2 transamidation activity, biotin X-cadaverine incorporation into N,N′-dimethylcasein (Example 2). Particulars: recombinant human TG2 400 ng/ml, 2 h at 37° C. The format is biochemical. How it is done: TG transamidation activity and the affect of inhibitors on activity was measured by biotin X-cadaverine incorporation into N,N′-dimethylcasein. After coating 96 well plates with 100 μl of 10 mg/ml N,N′-dimethylcasein in 50 mM Tris-Cl, pH8 at 4° C. over night, plates were washed with TBS-0.05% Tween-20(v/v), pH 7.6 and TBS, pH 7.6, and 100 μl purified recombinant human TG2 (400 ng/ml Zedira, Germany) (tissue transglutaminase) in 50 mM Tris-HCl, pH7.4, containing 1 mM DTT, 10 mM CaCl2 and 0.1 μM biotin-cadaverine added into the coated wells containing the appropriate concentration of inhibitor. The reaction was allowed to proceed for 2 h at 37° C. The plate was then washed twice with TBS-Tween-20 (v/v), pH 7.6 and once with TBS, pH 7.6 before being blocked with 100 μl of blocking buffer (3% (w/v) BSA in TBS-Tween, pH 7.6) for 30 min at 37° C. After blocking, the wells were incubated with 100 μl HRP-conjugated Extr-Avidin peroxidase (Sigma-Aldrich, UK) in blocking buffer (1:1,000 dilution) for 1 h at 37° C. After another set of washes, TG2 activity was measured using Sigma Fast OPD, tablets dissolved in 20 ml of distilled H2O. The colour was developed by adding 2.5 M H2SO4 and the absorbance at 490 nm measured using a microplate reader ELx808™. All inhibitors were dissolved in DMSO as a 100 mM solution prior to addition to the assay.

Data set [3] deals with T3, transglutaminase 1 (Homo sapiens, UniProt P22735).
T3 sequence (P22735 1-817): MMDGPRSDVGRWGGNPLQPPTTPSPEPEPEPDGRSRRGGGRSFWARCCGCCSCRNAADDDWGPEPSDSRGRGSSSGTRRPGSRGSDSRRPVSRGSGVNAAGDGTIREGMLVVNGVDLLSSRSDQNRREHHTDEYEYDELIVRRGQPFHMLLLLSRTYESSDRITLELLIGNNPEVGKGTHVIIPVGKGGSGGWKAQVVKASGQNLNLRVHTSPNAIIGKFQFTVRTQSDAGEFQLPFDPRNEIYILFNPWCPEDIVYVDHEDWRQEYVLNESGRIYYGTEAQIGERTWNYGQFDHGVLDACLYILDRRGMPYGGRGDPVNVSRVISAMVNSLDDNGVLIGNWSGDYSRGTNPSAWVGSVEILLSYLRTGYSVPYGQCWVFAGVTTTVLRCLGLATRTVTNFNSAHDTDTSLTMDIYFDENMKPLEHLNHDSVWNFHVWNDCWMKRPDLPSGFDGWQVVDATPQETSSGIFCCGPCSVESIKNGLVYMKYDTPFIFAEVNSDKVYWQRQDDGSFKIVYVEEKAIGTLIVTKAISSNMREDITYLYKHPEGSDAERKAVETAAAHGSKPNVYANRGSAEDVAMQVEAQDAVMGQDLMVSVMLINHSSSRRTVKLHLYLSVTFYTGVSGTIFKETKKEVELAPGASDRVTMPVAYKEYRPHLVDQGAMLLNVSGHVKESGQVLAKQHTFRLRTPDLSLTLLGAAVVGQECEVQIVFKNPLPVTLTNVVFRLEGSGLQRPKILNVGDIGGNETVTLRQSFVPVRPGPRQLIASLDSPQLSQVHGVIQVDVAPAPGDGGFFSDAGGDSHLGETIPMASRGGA
In words: TG-CovTest commercial microassay, transglutaminase 1. The format is biochemical. Particulars: read-out: Estimated IC50 TG1.
Description: as §1

In data set [4] the target is T4, transglutaminase 3 (Homo sapiens, UniProt Q08188).
T4 sequence (Q08188 1-693): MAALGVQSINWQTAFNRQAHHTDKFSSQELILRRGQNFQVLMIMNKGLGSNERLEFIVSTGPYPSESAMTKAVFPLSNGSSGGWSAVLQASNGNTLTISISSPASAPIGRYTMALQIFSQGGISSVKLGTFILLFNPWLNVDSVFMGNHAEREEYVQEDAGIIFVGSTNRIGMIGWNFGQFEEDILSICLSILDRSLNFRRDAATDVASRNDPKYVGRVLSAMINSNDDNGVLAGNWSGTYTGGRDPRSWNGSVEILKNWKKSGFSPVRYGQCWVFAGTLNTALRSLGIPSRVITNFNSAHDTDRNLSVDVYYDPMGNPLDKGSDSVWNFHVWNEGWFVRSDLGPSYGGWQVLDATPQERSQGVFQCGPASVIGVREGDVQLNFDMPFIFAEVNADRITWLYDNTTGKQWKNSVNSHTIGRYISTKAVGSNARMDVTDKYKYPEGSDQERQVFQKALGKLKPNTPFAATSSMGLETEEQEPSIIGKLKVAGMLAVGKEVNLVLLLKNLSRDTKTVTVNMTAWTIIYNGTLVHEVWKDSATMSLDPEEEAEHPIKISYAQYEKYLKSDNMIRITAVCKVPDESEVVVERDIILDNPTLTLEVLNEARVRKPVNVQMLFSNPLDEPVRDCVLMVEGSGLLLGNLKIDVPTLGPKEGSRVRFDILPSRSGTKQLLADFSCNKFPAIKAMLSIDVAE
In words: TG-CovTest commercial microassay, transglutaminase 3. The format is biochemical. Particulars: read-out: Estimated IC50 TG3.
Description: as §1

For orientation: IC50 means the concentration that inhibits the measured activity by half. Usually melting point stands for the temperature of the solid-liquid transition.

In the case of `COC(=O)c1ccc2cc(COC(=O)N3CCN(C(=O)CNC(=O)CBr)CC3)ccc2c1` [EB 1-137], in data set [1], the IC50 is below 100 µM.
As for `O=C(CBr)NCC(=O)N1CCN(C(=O)OCCC23CC4CC(CC(C4)C2)C3)CC1` [EB 1-177], the results for the IC50 in data set [2] and in data set [1] were 6.3 ± 0.49 nM and above 100 µM, respectively.
For the compound `Cc1c(C)[n+](C)c(SCC(=O)NCC(=O)N2CCN(C(=O)OC(C)(C)C)CC2)n1C` [EB 1-45], the IC50 in data set [2] came out at 400000 nM.
Compound `C=CS(=O)(=O)NCC(=O)N1CCN(C(=O)OCc2ccccc2)CC1` [Compound 8a, benzyl 4-[2-(vinylsulfonylamino)acetyl]piperazine-1-carboxylate] gave a melting point of 66 to 67 °C.
`CN(C)c1cccc2c(S(=O)(=O)N3CCN(C(=O)CNC(=O)C[S+](C)C)CC3)cccc12.[Br-]` came in with a melting point of 98 to 99 °C.
On to `C[S+](C)CC(=O)NCC(=O)N1CCN(C(=O)OCc2ccc3ccccc3c2)CC1` [EB 1-91], for which, in data set [1], the IC50 is above 100 µM.
On to `C=CC(=O)NCC(=O)N1CCN(C(=O)C23CC4CC(CC(C4)C2)C3)CC1` [EB 2-16], for which the IC50 in data set [3] was 2000 nM; in data set [1] it was 30 µM.
As for `C[S+](C)CC(=O)NCC(=O)N1CCN(C(=O)C23CC4CC(CC(C4)C2)C3)CC1` [EB 2-18], the IC50 in data set [1] was above 100 µM.
`COC(=O)c1ccc2cc(COC(=O)N3CCN(C(=O)CNC(=O)C[S+](C)C)CC3)ccc2c1.[Br-]`: the melting point fell in the range of 125 to 126 °C.
In the case of `CC(C)(C)OC(=O)N1CCN(C(=O)CNC(=O)CBr)CC1` [EB 1-37], the IC50 in data set [2] came out at 8 ± 3 nM.
For the compound `C[S+](C)CC(=O)NCC(=O)N1CCN(C(=O)OCC23CC4CC(CC(C4)C2)C3)CC1` [EB 1-178], the IC50 in data set [1] is above 100 µM.
Take `C[S+](C)CC(=O)NCC(=O)N1CCN(C(=O)OC(C)(C)C)CC1` [EB 1-46]: the IC50 was 70 ± 7 nM in data set [2] and above 100 µM in data set [1].
For the compound `C=CS(=O)(=O)NCC(=O)N1CCN(C(=O)C23CC4CC(CC(C4)C2)C3)CC1` [Compound 8e, N-[2-[4-(adamantane-1-carbonyl)piperazin-1-yl]-2-oxo-ethyl]ethenesulfonamide], the melting point was in the range of 159 to 160 °C.
Take `C[C@H](NC(=O)CBr)C(=O)N1CCN(C(=O)OCc2ccccc2)CC1` [EB 1-101]: in data set [2], the IC50 was 48 ± 6 nM.
Consider `C[C@@H](NC(=O)CBr)C(=O)N1CCN(C(=O)OCc2ccccc2)CC1` [EB 1-100], for which, in data set [2], the IC50 was 66 ± 1 nM.
Turning to `C=CC(=O)NCC(=O)N1CCN(C(=O)OCCC23CC4CC(CC(C4)C2)C3)CC1` [EB 1-181], the IC50 in data set [1] was above 100 µM.
The same measure, in the same setting: as for `O=C(CBr)NCC(=O)N1CCN(C(=O)C23CC4CC(CC(C4)C2)C3)CC1` [EB 2-17], the figure is below 100 µM.
As for `O=C(CBr)NCC(=O)N1CCN(C(=O)OCC23CC4CC(CC(C4)C2)C3)CC1` [EB 1-176], the IC50 was below 1000 nM in data set [2], 2000 nM in data set [3], 25 µM in data set [4] and above 100 µM in data set [1].
Regarding `CC[S+](CC)CC(=O)NCC(=O)N1CCN(S(=O)(=O)c2cccc3c(N(C)C)cccc23)CC1` [EB 1-159], the IC50 in data set [3] was above 100000 nM; in data set [4] it was above 100 µM; in data set [1] it was above 100 µM.
As for `C=CC(=O)NCC(=O)N1CCN(C(=O)OCc2ccc3cc(C(=O)OC)ccc3c2)CC1` [EB 1-136], in data set [1], the IC50 is above 100 µM.
Same read-out and setting: as for `C[S+](C)CC(=O)NCC(=O)N1CCN(C(=O)OCc2ccccc2)CC1` [EB 1-33], the figure is above 100 µM; as for `C=CC(=O)NCC(=O)N1CCN(C(=O)OCc2ccc3ccccc3c2)CC1` [EB 1-81], above 100 µM.
Take `O=C(CBr)NCC(=O)N1CCN(C(=O)OCc2ccccc2)CC1` [EB 1-32]: the half-maximal inhibitory concentration (IC50) in data set [2] worked out at 750 ± 70 nM.
Regarding `C=CC(=O)NCC(=O)N1CCN(S(=O)(=O)c2cccc3c(N(C)C)cccc23)CC1` [EB 1-155], the IC50 in data set [2] was 6.1 ± 0.42 nM; in data set [3] it was 5000 nM; in data set [4] it was above 100 µM; in data set [1], above 100 µM.
With `CN(C)c1cccc2c(S(=O)(=O)N3CCN(C(=O)CNC(=O)CCl)CC3)cccc12` [EB 2-57], in data set [2], the IC50 is 5.9 ± 0.14 nM.
Consider `CC(=O)NCC(=O)N1CCN(C(=O)OCc2ccccc2)CC1` [EB 1-44], for which the IC50 in data set [2] came out at 4250 ± 780 nM.
